Legend:
Conditions in all cases: banded MIC grade
Aspergillus flavus = assay: Minimum inhibitory concentration, YAG medium; assay type: cell-based
How it was run: (§1)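 Twofold aqueous dilution series, prepared from a DMSO stock (5 mg/mL), were inoculated with Aspergillus spp. spores; incubation lasted 24 hrs at 35° C before OD 485 nm readings.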

Aspergillus niger = assay: Minimum inhibitory concentration, YAG medium; assay type: cell-based
How it was run: as §1

Aspergillus terreus = assay: Minimum inhibitory concentration, YAG medium; assay type: cell-based
How it was run: as §1

Aspergillus fumigatus = assay: Minimum inhibitory concentration, YAG medium; assay type: cell-based
How it was run: (§2)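 Growth was read as optical density at 485 nm after 24 hrs at 35° C, and the MIC taken as the lowest drug concentration cutting growth by >70% relative to drug-free wells. Plates held doubling dilutions (50-0.05 mg/L) with 1-2×10^4 cfu/mL spores in YAG medium.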

C. albicans = assay: Minimum inhibitory concentration, RPMI medium; assay type: cell-based
How it was run: (§3)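 Incubated at 35° C for 24-48 hrs in RPMI 1640 with twofold water dilutions of compound (from 5 mg/mL stock in DMSO); absorbance at 485 nm indicated growth.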

C. tropicalis = assay: Minimum inhibitory concentration, RPMI medium; assay type: cell-based
How it was run: as §3

C. parapsilosis = assay: Minimum inhibitory concentration, RPMI medium; assay type: cell-based
How it was run: as §3

A. terreus 49 = assay: Minimum inhibitory concentration, YAG medium; assay type: cell-based, Aspergillus terreus
How it was run: as §1

A. fumigatus 210 = assay: Minimum inhibitory concentration, YAG medium; assay type: cell-based, Aspergillus fumigatus
How it was run: as §2

Compound	MIC grade, A. FLAVUS, YAG media (Aspergillus flavus)	MIC grade, A. NIGER, YAG media (Aspergillus niger)	MIC grade, A. TERREUS, YAG media (Aspergillus terreus)	MIC grade, A. FUMIGATUS, YAG media (Aspergillus fumigatus)	MIC grade, C. ALBICANS, RPMI media (C. albicans)	MIC grade, C. TROPICALIS, RPMI media (C. tropicalis)	MIC grade, C. PARAPSILOSIS, RPMI media (C. parapsilosis)	MIC grade, A. TERREUS 49, YAG media (A. terreus 49)	MIC grade, A. FUMIGATUS 210, YAG media (A. fumigatus 210)
CCCCCCCC1=CSC(N)=NN1 [5-heptyl-4~{H}-1,3,4-thiadiazin-2-amine]	4 (4: <0.2 mg/L)	4 (4: <0.2 mg/L)	4 (4: <0.2 mg/L)	4 (4: <0.2 mg/L)	3 (3: 1-5 mg/L)	3 (3: 1-5 mg/L)	3 (3: 1-5 mg/L)	3 (3: 0.2-1 mg/L)	4 (4: <0.2 mg/L)
COCCCCC1=NN=C(N)SC1	3 (3: 0.2-1 mg/L)	3 (3: 0.2-1 mg/L)	3 (3: 0.2-1 mg/L)	3 (3: 0.2-1 mg/L)	3 (3: 1-5 mg/L)	3 (3: 1-5 mg/L)	4 (4: <1 mg/L)	3 (3: 0.2-1 mg/L)	4 (4: <0.2 mg/L)
CCCCOC1CCC2=NN=C(N)SC2C1 (stereo not drawn)	2 (2: 1-5 mg/L)	2 (2: 1-5 mg/L)	2 (2: 1-5 mg/L)	1 (1: ≥5 mg/L)	1 (1: ≥20 mg/L)	1 (1: ≥20 mg/L)	1 (1: ≥20 mg/L)	2 (2: 1-5 mg/L)	3 (3: 0.2-1 mg/L)
CCCc1ccc(C2=NN=C(N)SC2)cc1	2 (2: 1-5 mg/L)	2 (2: 1-5 mg/L)	3 (3: 0.2-1 mg/L)	3 (3: 0.2-1 mg/L)	1 (1: ≥20 mg/L)	1 (1: ≥20 mg/L)	1 (1: ≥20 mg/L)	3 (3: 0.2-1 mg/L)	3 (3: 0.2-1 mg/L)
CCCCOCCC1=NN=C(N)SC1	3 (3: 0.2-1 mg/L)	4 (4: <0.2 mg/L)	4 (4: <0.2 mg/L)	4 (4: <0.2 mg/L)	1 (1: ≥20 mg/L)	2 (2: 5-20 mg/L)	4 (4: <1 mg/L)	4 (4: <0.2 mg/L)	4 (4: <0.2 mg/L)
CCCCOc1cccc(C2=NN=C(N)SC2)c1	1 (1: ≥5 mg/L)	1 (1: ≥5 mg/L)	1 (1: ≥5 mg/L)	1 (1: ≥5 mg/L)	1 (1: ≥20 mg/L)	1 (1: ≥20 mg/L)	1 (1: ≥20 mg/L)	1 (1: ≥5 mg/L)	1 (1: ≥5 mg/L)
NC1=NN=C(c2ccccn2)CS1	1 (1: ≥5 mg/L)	2 (2: 1-5 mg/L)	1 (1: ≥5 mg/L)	1 (1: ≥5 mg/L)	1 (1: ≥20 mg/L)	1 (1: ≥20 mg/L)	1 (1: ≥20 mg/L)	1 (1: ≥5 mg/L)	1 (1: ≥5 mg/L)
COCCOCCC1=NN=C(N)SC1	2 (2: 1-5 mg/L)	3 (3: 0.2-1 mg/L)	3 (3: 0.2-1 mg/L)	2 (2: 1-5 mg/L)	2 (2: 5-20 mg/L)	1 (1: ≥20 mg/L)	2 (2: 5-20 mg/L)	3 (3: 0.2-1 mg/L)	2 (2: 1-5 mg/L)
COCCCCCC1=NN=C(N)SC1	4 (4: <0.2 mg/L)	4 (4: <0.2 mg/L)	4 (4: <0.2 mg/L)	4 (4: <0.2 mg/L)	4 (4: <1 mg/L)	3 (3: 1-5 mg/L)	4 (4: <1 mg/L)	4 (4: <0.2 mg/L)	4 (4: <0.2 mg/L)

Reference: US20180201592A1, “2-AMINO-1,3,4-THIADIAZINE AND 2-AMINO-1,3,4-OXADIAZINE BASED ANTIFUNGAL AGENTS” (F2G Limited, priority 2015, published 2018)
